Measurements taken from the supplement of paper PMC11208160.

Assay: recombinant UMI read abundance after kanamycin selection (control-corrected) (log10(CPM+1)); higher = more efficient recombination; extreme values may be limits of the assay; sequences stand for … in AGTGCAGAGAAAATCGGCCAGTTTTCTCTGCCTGCAGTCCGCATGCCGTGGGACCCCTTGGGTTCTAACCTGTTGCCTAGATTTATGCAGCGGACTGCCTTTCTCCCAAAGTGATAAACCGG…AGGTTGGTTTCACT; site = the 11-nt donor
In short: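 Two replicates each of selected and unselected plating were used in this pooled Escherichia coli screen of donor and donor-binding-loop pairs for the IS621 bridge recombinase. Selection was with IPTG (0.07 mM) and kanamycin. Counts of recombinant UMIs, amplified across the donor–target junction, were converted to CPM, averaged, scaled by control-derived factors and reported as log10(CPM+1).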
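Also: IS621 bridge recombinase in Escherichia coli cells against a fixed T5 target plasmid.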

Row | Sequence | recombinant UMI read abundance (log10)
1 | CGATAATCATGGACCGGTTTTCCCGGTAATCCGTATTTGGT (site CGATAATCTAC) | 2.74
2 | GTCAGAACATGGACCGGTTTTCCCGGTAATCCGTATTTGAT (site GTCAGAACTAT) | 2.16
3 | CAAGCACCATGGACCGGTTTTCCCGGTAATCCGTATTTGTG (site CAAGCTCCTCA) | 0
4 | GAGCTCACATGGACCGGTTTTCCCGGTAATCCGTATTTGAC (site GAGCTCACTTT) | 0.00766
5 | GTTAGATCATGGACCGGTTTTCCCGGTAATCCGTATTTGGC (site GTTAGAGCTGC) | 0
6 | CCAGGTGCATGGACCGGTTTTCCCGGTAATCCGTATTTGAT (site CCAGGTGCTGT) | 0
7 | ACAAGGACATGGACCGGTTTTCCCGGTAATCCGTATTTGCG (site ACAAGGACTCG) | 2.42
8 | GGCCCGTCATGGACCGGTTTTCCCGGTAATCCGTATTTGCA (site GGCCCGTCTTG) | 1.73
9 | GCCACCGCATGGACCGGTTTTCCCGGTAATCCGTATTTGCG (site TCCACCGCTCG) | 0.00586
10 | GAAACGTCATGGACCGGTTTTCCCGGTAATCCGTATTTGGC (site GAAACGTCTGC) | 2.01
11 | AGTCTTACATGGACCGGTTTTCCCGGTAATCCGTATTTGCG (site AGTCTTACTCG) | 1.32
12 | CTACGAACATGGACCGGTTTTCCCGGTAATCCGTATTTGGG (site CTACGAACTCC) | 1.11
13 | CCCATATCATGGACCGGTTTTCCCGGTAATCCGTATTTGTT (site CCCATATCTCA) | 0.0132
14 | CCCGGTCCATGGACCGGTTTTCCCGGTAATCCGTATTTGCA (site CCCGGTCCTTG) | 0
15 | ACTAGTGCATGGACCGGTTTTCCCGGTAATCCGTATTTGGT (site TCTAGTGCTAC) | 0.86
16 | CCCAATACATGGACCGGTTTTCCCGGTAATCCGTATTTGGC (site CCTAATACTGC) | 0
17 | GGGGCCCCATGGACCGGTTTTCCCGGTAATCCGTATTTGCA (site GGGGCCCCTTG) | 0.411
18 | CCAGGTGCATGGACCGGTTTTCCCGGTAATCCGTATTTGAT (site CCAGGCGCTAT) | 0.436
19 | ATCTACACATGGACCGGTTTTCCCGGTAATCCGTATTTGCT (site CTCTACACTAG) | 1.56
20 | AGGAAGACATGGACCGGTTTTCCCGGTAATCCGTATTTGCA (site AGTAAGACTTG) | 1.25
21 | GGGTCACCATGGACCGGTTTTCCCGGTAATCCGTATTTGCA (site GGGGCACCTTG) | 0
22 | AGGTTCCCATGGACCGGTTTTCCCGGTAATCCGTATTTGTT (site AGGTTCCCTTA) | 0
23 | ATGAAGGCATGGACCGGTTTTCCCGGTAATCCGTATTTGGC (site ATGGAGGCTGC) | 2.09
24 | TCCCCTGCATGGACCGGTTTTCCCGGTAATCCGTATTTGAT (site TCCCCTGCTAT) | 0.00458
25 | AGGAAGACATGGACCGGTTTTCCCGGTAATCCGTATTTGCA (site AGGAAGACTTT) | 2.15

Row | Sequence | recombinant UMI read abundance (log10)
26 | CAAGGTGCATGGACCGGTTTTCCCGGTAATCCGTATTTGTT (site CAAGGTGCTAA) | 2.59
27 | AGGAAGACATGGACCGGTTTTCCCGGTAATCCGTATTTGCA (site AGGAAATCTTG) | 0
28 | TTAGTTCCATGGACCGGTTTTCCCGGTAATCCGTATTTGTT (site TTAGTTCCTAA) | 0.183
29 | ACCATATCATGGACCGGTTTTCCCGGTAATCCGTATTTGTC (site CCCATATCTGA) | 0
30 | ATAAGGCCATGGACCGGTTTTCCCGGTAATCCGTATTTGAC (site ATAAGTCCTGT) | 0
31 | AGGAAGACATGGACCGGTTTTCCCGGTAATCCGTATTTGCA (site AGGTAGACTTG) | 1.88
32 | TCATACTCATGGACCGGTTTTCCCGGTAATCCGTATTTGGA (site TCATACTCTTC) | 1.76
33 | AAATTCCCATGGACCGGTTTTCCCGGTAATCCGTATTTGCT (site TAATTCCCTAG) | 1.08
34 | GAAGAATCATGGACCGGTTTTCCCGGTAATCCGTATTTGTT (site GAAGATTCTAA) | 0
35 | GAGCCTTCATGGACCGGTTTTCCCGGTAATCCGTATTTGGT (site TAGCCTTCTAC) | 0.0029
36 | TATGTGTCATGGACCGGTTTTCCCGGTAATCCGTATTTGAC (site AATGTGTCTGT) | 0
37 | CAGTAGACATGGACCGGTTTTCCCGGTAATCCGTATTTGGG (site CAGTTGACTCC) | 0.033
38 | ATATAGGCATGGACCGGTTTTCCCGGTAATCCGTATTTGGC (site ATCTAGGCTGC) | 1.31
39 | GCCAAAACATGGACCGGTTTTCCCGGTAATCCGTATTTGCT (site GCCAAAACTAG) | 1
40 | GGGCCAACATGGACCGGTTTTCCCGGTAATCCGTATTTGTA (site GGCCCAACTTA) | 0.0205
41 | CTTCTAACATGGACCGGTTTTCCCGGTAATCCGTATTTGGA (site CTTCTAACTTC) | 0.0115
42 | CGATCATCATGGACCGGTTTTCCCGGTAATCCGTATTTGCA (site CGATCATCTCG) | 0
43 | CTCTACACATGGACCGGTTTTCCCGGTAATCCGTATTTGCT (site TTCTACACTAG) | 0.107
44 | TAACTGCCATGGACCGGTTTTCCCGGTAATCCGTATTTGTG (site TAACTGCCTCA) | 0.00877
45 | GGCCACCCATGGACCGGTTTTCCCGGTAATCCGTATTTGTT (site GCCCACCCTAA) | 0.0196
46 | GTAATCGCATGGACCGGTTTTCCCGGTAATCCGTATTTGCG (site GTAGTCGCTCG) | 0.00978
47 | TAGCTAGCATGGACCGGTTTTCCCGGTAATCCGTATTTGAA (site TAGCTAGCTGT) | 1.28
48 | GTGGTCGCATGGACCGGTTTTCCCGGTAATCCGTATTTGCG (site GTCGTCGCTCG) | 0.0116
49 | CCTTTCTCATGGACCGGTTTTCCCGGTAATCCGTATTTGGG (site CCTTTCTCTCC) | 0
50 | GGGGTACCATGGACCGGTTTTCCCGGTAATCCGTATTTGCA (site GGGGCACCTTG) | 0

Row | Sequence | recombinant UMI read abundance (log10)
51 | TAATTGACATGGACCGGTTTTCCCGGTAATCCGTATTTGCT (site TAATTGACTAG) | 2.35
52 | AGGAAGACATGGACCGGTTTTCCCGGTAATCCGTATTTGCA (site AGGATGTCTTG) | 0
53 | CGGCAGGCATGGACCGGTTTTCCCGGTAATCCGTATTTGAT (site CGGCAGGCTAT) | 2.21
54 | ACCCACACATGGACCGGTTTTCCCGGTAATCCGTATTTGTA (site CCCCACACTTA) | 0.963
55 | ATAAGGCCATGGACCGGTTTTCCCGGTAATCCGTATTTGAC (site ACAAGGCCTGT) | 0
56 | GCCATGCCATGGACCGGTTTTCCCGGTAATCCGTATTTGTA (site GCCAGGCCTTA) | 0.00785
57 | CTACGTCCATGGACCGGTTTTCCCGGTAATCCGTATTTGAA (site CTACGTCCTTT) | 1.23
58 | ACATCTTCATGGACCGGTTTTCCCGGTAATCCGTATTTGTG (site ACATCTTCTCA) | 0.969
59 | GGAATGTCATGGACCGGTTTTCCCGGTAATCCGTATTTGTT (site GGAATGTCTAA) | 2.44
60 | GCAACTGCATGGACCGGTTTTCCCGGTAATCCGTATTTGCC (site GCTACTGCTGG) | 0
61 | GTTAGAACATGGACCGGTTTTCCCGGTAATCCGTATTTGCC (site GTTAGAACTGA) | 0
62 | AGACATCCATGGACCGGTTTTCCCGGTAATCCGTATTTGAC (site AAACATCCTGT) | 0
63 | ATTAAGACATGGACCGGTTTTCCCGGTAATCCGTATTTGGT (site ATTCAGACTAC) | 0.417
64 | TATTTGTCATGGACCGGTTTTCCCGGTAATCCGTATTTGTG (site TATTTGTCTCA) | 0.515
65 | ATCCACGCATGGACCGGTTTTCCCGGTAATCCGTATTTGAG (site ATCCATGCTCT) | 0.00887
66 | GTAATTTCATGGACCGGTTTTCCCGGTAATCCGTATTTGCA (site GTAATTTCTTG) | 1.4
67 | GCAGACTCATGGACCGGTTTTCCCGGTAATCCGTATTTGTT (site GCAGACTCTAA) | 3.03
68 | GCATCTACATGGACCGGTTTTCCCGGTAATCCGTATTTGTG (site TCATCTACTCA) | 1.87
69 | TACGGCCCATGGACCGGTTTTCCCGGTAATCCGTATTTGTT (site GACGGCCCTAA) | 0.00736
70 | CTAGTACCATGGACCGGTTTTCCCGGTAATCCGTATTTGGC (site CTAGTACCTGC) | 0
71 | TTTGCGGCATGGACCGGTTTTCCCGGTAATCCGTATTTGCG (site TTTGCGGCTGG) | 0
72 | GTGGAGGCATGGACCGGTTTTCCCGGTAATCCGTATTTGAG (site GTGGAGGCTCT) | 1.57
73 | ATCCGATCATGGACCGGTTTTCCCGGTAATCCGTATTTGGT (site ATCCGATCTAC) | 0.721
74 | GTTAGATCATGGACCGGTTTTCCCGGTAATCCGTATTTGGC (site GTTAGAACTGC) | 0
75 | CCAAAAGCATGGACCGGTTTTCCCGGTAATCCGTATTTGAT (site CCGAAAGCTAT) | 0
